target: MMP-13CD (catalytic domain of collagenase-3) (Homo sapiens, UniProt P45452); experiment: Thiopeptolide substrate hydrolysis inhibition assay, MMP-13CD; assay type: biochemical; details: Table I; thiopeptolide substrate, HEPES pH 7.0, 22° C.; read-out: MMP-13CD IC50
From the text: Thiopeptolide substrates show virtually no decomposition or hydrolysis at or below neutral pH in the absence of a matrix metalloproteinase enzyme.

First: COc1ccc(OC)c(C(=O)Cn2c(=O)c3cc(C(=O)OCc4ccccc4)sc3n(C)c2=O)c1 [Example 108, 3-[2-(2,5-Dimethoxy-phenyl)-2-oxo-ethyl]-1-methyl-2,4-dioxo-1,2,3,4-tetrahydro-thieno[2,3-d]pyrimidine-6-carboxylic acid benzyl ester]
Second: C=C(Cn1c(=O)c2cc(C(=O)OCc3ccccc3)sc2n(C)c1=O)C(=O)O [Example 114]
The IC50 of the first is 5.2-fold higher: 1700 nM for the first, 330 nM for the second.

Compared with Cn1c(=O)n(Cc2cccc(I)c2)c(=O)c2cc(C(=O)OCc3ccccc3)sc21 [Example 109, 3-(3-Iodo-benzyl)-1-methyl-2,4-dioxo-1,2,3,4-tetrahydro-thieno[2,3-d]pyrimidine-6-carboxylic acid benzyl ester], Cn1c(=O)n(Cc2cccc(C(F)(F)F)c2)c(=O)c2cc(C(=O)OCc3ccccc3)sc21 [Example 110, 1-Methyl-2,4-dioxo-3-(3-trifluoromethyl-benzyl)-1,2,3,4-tetrahydro-thieno[2,3-d]pyrimidine-6-carboxylic acid benzyl ester] is 2.2-fold lower in IC50: 940 nM for the first, 420 nM for the second.

Compared with Cn1c(=O)n(Cc2ccc(C(F)(F)F)cc2C(F)(F)F)c(=O)c2cc(C(=O)OCc3ccccc3)sc21 [Example 111, 3-(2,4-Bis-trifluoromethyl-benzyl)-1-methyl-2,4-dioxo-1.2.3.4-tetrahydro-thieno[2,3-d]pyrimidine-6-carboxylic acid benzyl ester], Cn1c(=O)n(Cc2ccc(F)cc2)c(=O)c2cc(C(=O)OCc3ccccc3)sc21 [Example 118, 3-(4-Fluoro-benzyl)-1-methyl-2,4-dioxo-1,2,3,4-tetrahydro-thieno[2,3-d]pyrimidine-6-carboxylic acid benzyl ester] is 210-fold lower in IC50: 3200 nM for the first, 15 nM for the second. The second is the more potent here.

Going from Cn1c(=O)n(CCN2C(=O)c3ccccc3C2=O)c(=O)c2cc(C(=O)OCc3ccccc3)sc21 [Example 112, 3-[2-(1,3-Dioxo-1,3-dihydro-isoindol-2-yl)-ethyl]-1-methyl-2,4-dioxo-1,2,3,4-tetrahydro-thieno[2,3-d]pyrimidine-6-carboxylic acid benzyl ester] to Cn1c(=O)n(CN2C(=O)c3ccccc3C2=O)c(=O)c2cc(C(=O)OCc3ccccc3)sc21 [Example 117, 3-(1,3-Dioxo-1,3-dihydro-isoindol-2-ylmethyl)-1-methyl-2,4-dioxo-1,2,3,4-tetrahydro-thieno[2,3-d]pyrimidine-6-carboxylic acid benzyl ester], the IC50 falls from 2900 nM to 36 nM (81-fold).

First: Cn1c(=O)n(CCN2C(=O)c3ccccc3C2=O)c(=O)c2cc(C(=O)OCc3ccccc3)sc21 [Example 113, 3-[2-(1,3-Dioxo-1,3-dihydro-isoindol-2-yl)-ethyl]-1-methyl-2,4-dioxo-1,2,3,4-tetrahydro-thieno[2,3-d]pyrimidine-6-carboxylic acid benzyl ester]
Second: Cn1c(=O)n(CCOc2ccccc2)c(=O)c2cc(C(=O)OCc3ccccc3)sc21 [Example 132, 1-Methyl-2,4-dioxo-3-(2-phenoxy-ethyl)-1,2,3,4-tetrahydro-thieno[2,3-d]pyrimidine-6-carboxylic acid benzyl ester]
The IC50 of the first is 39-fold higher: 2900 nM for the first, 74 nM for the second.

Compared with C=C(Cn1c(=O)c2cc(C(=O)OCc3ccccc3)sc2n(C)c1=O)C(=O)O [Example 115, 3-(2-Carboxy-allyl)-1-methyl-2,4-dioxo-1,2,3,4-tetrahydro-thieno[2,3-d]pyrimidine-6-carboxylic acid benzyl ester], C=CCn1c(=O)c2cc(C(=O)OCc3ccccc3)sc2n(C)c1=O [Example 129, 3-Allyl-1-methyl-2,4-dioxo-1,2,3,4-tetrahydro-thieno[2,3-d]pyrimidine-6-carboxylic acid benzyl ester] is 2.1-fold lower in IC50: 330 nM for the first, 160 nM for the second. The second is the more potent here.

Compared with Cn1c(=O)n(CCCN)c(=O)c2cc(C(=O)OCc3ccccc3)sc21 [Example 116, 3-(3-Amino-propyl)-1-methyl-2,4-dioxo-1,2,3,4-tetrahydro-thieno[2,3-d]pyrimidine-6-carboxylic acid benzyl ester], C=CCCCCn1c(=O)c2cc(C(=O)OCc3ccccc3)sc2n(C)c1=O [Example 124, 3-Hex-5-enyl-1-methyl-2,4-dioxo-1,2,3,4-tetrahydro-thieno[2,3-d]pyrimidine-6-carboxylic acid benzyl ester] is 120-fold lower in IC50: 13000 nM for the first, 110 nM for the second. The second is the more potent here.

Compared with Cn1c(=O)n(CC2CO2)c(=O)c2cc(C(=O)OCc3ccccc3)sc21 (stereo not shown) [Example 119, 1-Methyl-3-oxiranylmethyl-2,4-dioxo-1,2,3,4-tetrahydro-thieno[2,3-d]pyrimidine-6-carboxylic acid benzyl ester], C#CCn1c(=O)c2cc(C(=O)OCc3ccccc3)sc2n(C)c1=O [Example 130, 1-Methyl-2,4-dioxo-3-prop-2-ynyl-1,2,3,4-tetrahydro-thieno[2,3-d]pyrimidine-6-carboxylic acid benzyl ester] is 5.3-fold lower in IC50: 510 nM for the first, 97 nM for the second. The second is the more potent here.

First: CCC(C)Cn1c(=O)c2cc(C(=O)OCc3ccccc3)sc2n(C)c1=O (stereo not shown) [Example 120, 1-Methyl-3-(2-methyl-butyl)-2,4-dioxo-1,2,3,4-tetrahydro-thieno[2,3-d]pyrimidine-6-carboxylic acid benzyl ester]
Second: CC#CCn1c(=O)c2cc(C(=O)OCc3ccccc3)sc2n(C)c1=O [Example 131, 3-But-2-ynyl-1-methyl-2,4-dioxo-1,2,3,4-tetrahydro-thieno[2,3-d]pyrimidine-6-carboxylic acid benzyl ester]
The IC50 of the first is 6.8-fold higher: 130 nM for the first, 19 nM for the second. The second is the more potent here.

Compared with Cn1c(=O)n(CCCCOc2ccccc2)c(=O)c2cc(C(=O)OCc3ccccc3)sc21 [Example 121, 1-Methyl-2,4-dioxo-3-(4-phenoxy-butyl)-1,2,3,4-tetrahydro-thieno[2,3-d]pyrimidine-6-carboxylic acid benzyl ester], Cn1c(=O)n(CCCOc2ccccc2)c(=O)c2cc(C(=O)OCc3ccccc3)sc21 [Example 123, 1-Methyl-2,4-dioxo-3-(3-phenoxy-propyl)-1,2,3,4-tetrahydro-thieno[2,3-d]pyrimidine-6-carboxylic acid benzyl ester] is 31-fold higher in IC50: 250 nM for the first, 7800 nM for the second.

First: Cn1c(=O)n(Cc2ccccc2C#N)c(=O)c2cc(C(=O)OCc3ccccc3)sc21 [Example 122, 3-(2-Cyano-benzyl)-1-methyl-2,4-dioxo-1,2,3,4-tetrahydro-thieno[2,3-d]pyrimidine-6-carboxylic acid benzyl ester]
Second: Cn1c(=O)n(Cc2cccnc2)c(=O)c2cc(C(=O)OCc3ccccc3)sc21 [Example 125, 1-Methyl-2,4-dioxo-3-pyridin-3-ylmethyl-1,2,3,4-tetrahydro-thieno[2,3-d]pyrimidine-6-carboxylic acid benzyl ester]
The IC50 of the first is 50-fold higher: 4500 nM for the first, 90 nM for the second. The second is the more potent here.

Compared with Cn1c(=O)n(CC(O)COc2cccc3ccccc23)c(=O)c2cc(C(=O)OCc3ccccc3)sc21 (stereo not shown) [Example 126, 3-[2-Hydroxy-3-(naphthalen-1-yloxy)-propyl]-1-methyl-2,4-dioxo-1,2,3,4-tetrahydro-thieno[2,3-d]pyrimidine-6-carboxylic acid benzyl ester], Cn1c(=O)n(CCOc2ccccc2)c(=O)c2cc(C(=O)OCc3ccccc3)sc21 [Example 133, 1-Methyl-2,4-dioxo-3-(2-phenoxy-ethyl)-1,2,3,4-tetrahydro-thieno[2,3-d]pyrimidine-6-carboxylic acid benzyl ester] is 180-fold lower in IC50: 13000 nM for the first, 74 nM for the second. The second is the more potent here.

In the case of Cn1c(=O)c2cc(C(=O)OCc3ccccc3)sc2n(C)c1=O [Example 127, 1,3-Dimethyl-2,4-dioxo-1,2,3,4-tetrahydro-thieno[2,3-d]pyrimidine-6-carboxylic acid benzyl ester], the IC50 is reported as 3900 nM.

From patent US20030004172A1, “Fused pyrimidinone matrix metalloproteinase inhibitors” (priority 2001, published 2003)
